Assay results from publication PMC6193035, “Novel small molecules affecting cell membrane as potential therapeutics for avian pathogenic Escherichia coli” (Scientific Reports, 2018).
Converted amounts (≈) assume the structure as drawn. Marks after values point to notes of the source that are not given here.

What was measured:
APEC O1 = test: MIC and MBC determination in M63 media; format: cell-based; settings: Escherichia coli
APEC O2 = test: MIC and MBC determination in M63 media; format: cell-based; settings: Escherichia coli
APEC O15 = test: MIC and MBC determination in M63 media; format: cell-based; settings: Escherichia coli
APEC O115 = test: MIC and MBC determination in M63 media; format: cell-based; settings: Escherichia coli
APEC O109 = test: MIC and MBC determination in M63 media; format: cell-based; settings: Escherichia coli
APEC O78-53 = test: MIC and MBC determination in M63 media; format: cell-based; settings: Escherichia coli; APEC O78-53, M63 media
Protocol: One microlitre SM of each concentration was transferred to each well of a 96-well plate containing 100 µL of the 0.05 OD600 adjusted APEC O78 culture in M63 media. Growth was monitored in Sunrise - Absorbance microplate reader as described above. MIC was indicated by lowest concentration of SM with non-elevated OD600 measurement. MBC was determined by absence of APEC growth on LB agar plate following subculture. […] Two independent experiments were conducted.

APEC O1-63 = test: MIC and MBC determination in M63 media; format: cell-based; settings: Escherichia coli; APEC O1-63, M63 media
[1] = tested on: biofilm embedded APEC O78; test: MBEC High-throughput (HTP) assay; format: cell-based, Escherichia coli; settings: for MBEC as multiple of MIC (superscript): 18 h challenge in M63 media
Protocol: The effect of cidal SMs against biofilm embedded APEC was determined using MBEC High-throughput (HTP) assay (Innovotech Inc., AB, Canada)[22]. Briefly, 150 μL of 0.05 OD600 adjusted APEC O78 culture was aliquoted into each well of the MBEC device containing polystyrene pegs and incubated at 37 °C for 36 h in LB media under stationary condition. […] The plate was incubated in the dark for 18 h at 37 °C with rotation at 110 rpm. The DMSO (1%) and […] media were used as positive and negative controls, respectively. Following incubation, MIC of SMs in challenged plate was recorded. The SMs exposed pegs were then transferred to a new 96-well plate containing PBS and sonicated for 30 mins (Aquasonic ultrasonic cleaner, VWR) to disrupt the biofilm. The sonicated suspensions were ten-fold serially diluted and plated on LB agar plate. Biofilm embedded APEC bacteria were enumerated and minimum biofilm eradication concentration (MBEC) of SMs were determined as described previously. Two independent experiments were conducted.

APEC O78 = test: Loss of 260/280 nm absorbing materials assay; format: cell-based, Escherichia coli; settings: 2X MBC, 1 h; for Absorbance 280 nm of treated supernatant: DMSO 2.58; for Absorbance 280 nm of treated supernatant / Absorbance 260 nm of treated supernatant: superscript a P < 0.05 vs DMSO; for Absorbance 260 nm of treated supernatant: DMSO 3.77
Protocol: Membrane permeability assays (crystal violet (CV) uptake and loss of 260/280 nm absorbing materials) were conducted as described previously. […] CV uptake was measured using the formula: (OD DMSO − OD SM/OD DMSO × 100). Two independent experiments in duplicates were conducted.

[2] = tested on: intracellular APEC O1 in HD11 cells; test: Intracellular survival assay; format: cell-based, Escherichia coli; settings: for minimal effective concentration: Escherichia coli, O1, HD11, 6 h treatment, read-out: SMs intracellular APEC clearance concentration; for concentration at which the SM significantly (P < 0.01) reduced intracellular APEC (superscript of t-statistic): O1, HD11, 6 h
Protocol: (§1) Intracellular survival assay was conducted as described previously[28],[29] to determine the effect of cidal SMs on APEC survival in phagocytic (HD11, THP-1) and non-phagocytic (Caco-2) cells. Briefly, mid-logarithmic phase grown APEC O78, O1, and O2 were washed and adjusted to 1 × 10^7 CFU/mL in cell culture incomplete media (no FBS and antibiotics). One-hundred microlitres adjusted APEC suspension was added at multiplicity of infection (MOI) 10 to wells of 96-well cell culture plate containing cultured macrophage (HD11, THP-1) and epithelial cells (Caco-2) and incubated for 1 h and 3 h, respectively. […] The cells were then lysed with 100 µL of 0.1% Triton X-100 for 5 mins, serially diluted, and plated on LB agar plate to enumerate viable bacteria. The intracellular bacteria in SMs treated wells were compared with DMSO (1%) treated wells. Two independent experiments in duplicate wells for each concentration of SMs were conducted.

[3] = tested on: intracellular APEC O1 in THP-1 cells; test: Intracellular survival assay; format: cell-based, Escherichia coli; settings: for minimal effective concentration: Escherichia coli, O1, THP-1, 6 h treatment, read-out: SMs intracellular APEC clearance concentration; for intracellular APEC clearance concentration as multiple of MIC (superscript): O1, THP-1; for concentration at which the SM significantly (P < 0.01) reduced intracellular APEC (superscript of t-statistic): O1, THP-1, 6 h
Protocol: as §1

[4] = tested on: intracellular APEC O2 in Caco-2 cells; test: Intracellular survival assay; format: cell-based, Escherichia coli; settings: for minimal effective concentration: Escherichia coli, O2, Caco-2, 6 h treatment, read-out: SMs intracellular APEC clearance concentration; for concentration at which the SM significantly (P < 0.01) reduced intracellular APEC (superscript of t-statistic): O2, Caco-2, 6 h
Protocol: as §1

[5] = tested on: intracellular APEC O2 in HD11 cells; test: Intracellular survival assay; format: cell-based, Escherichia coli; settings: for minimal effective concentration: Escherichia coli, O2, HD11, 6 h treatment, read-out: SMs intracellular APEC clearance concentration; for intracellular APEC clearance concentration as multiple of MIC (superscript): O2, HD11; for concentration at which the SM significantly (P < 0.01) reduced intracellular APEC (superscript of t-statistic): O2, HD11, 6 h
Protocol: as §1

[6] = tested on: intracellular APEC O2 in THP-1 cells; test: Intracellular survival assay; format: cell-based, Escherichia coli; settings: for minimal effective concentration: Escherichia coli, O2, THP-1, 6 h treatment, read-out: SMs intracellular APEC clearance concentration; for concentration at which the SM significantly (P < 0.01) reduced intracellular APEC (superscript of t-statistic): O2, THP-1, 6 h
Protocol: as §1

[7] = tested on: intracellular APEC O78 in HD11 cells; test: Intracellular survival assay; format: cell-based, Escherichia coli; settings: for minimal effective concentration: Escherichia coli, O78, HD11, 6 h treatment, read-out: SMs intracellular APEC clearance concentration; for intracellular APEC clearance concentration as multiple of MIC (superscript): O78, HD11; for concentration at which the SM significantly (P < 0.01) reduced intracellular APEC (superscript of t-statistic): O78, HD11, 6 h
Protocol: as §1

[8] = tested on: intracellular APEC O78 in THP-1 cells; test: Intracellular survival assay; format: cell-based, Escherichia coli; settings: for minimal effective concentration: Escherichia coli, O78, THP-1, 6 h treatment, read-out: SMs intracellular APEC clearance concentration; for intracellular APEC clearance concentration as multiple of MIC (superscript): O78, THP-1; for concentration at which the SM significantly (P < 0.01) reduced intracellular APEC (superscript of t-statistic): O78, THP-1, 6 h
Protocol: as §1

[9] = tested on: intracellular APEC O78, O2, and O1 in infected Caco-2, HD11, and THP1 cells; test: Intracellular survival assay, statements over all serotypes and cells; format: cell-based, Escherichia coli; settings: for minimal effective concentration: Escherichia coli, 6 h, O78, O2 and O1, Caco-2, HD11, THP-1, read-out: concentration clearing intracellular APEC
Protocol: as §1

Structure (SMILES)	MBC (APEC O1) [µM]	MIC (APEC O1) [µM]	MBC (APEC O2) [µM]	MIC (APEC O2) [µM]	MBC (APEC O15) [µM]	MIC (APEC O15) [µM]	MBC (APEC O115) [µM]	MIC (APEC O115) [µM]	MBC (APEC O109) [µM]	MIC (APEC O109) [µM]	MBC (APEC O78-53) [µM]	MIC (APEC O78-53) [µM]	MBC (APEC O1-63) [µM]	MIC (APEC O1-63) [µM]	MBEC as multiple of MIC (superscript) [1]	260 nm absorbing materials in supernatant compared with DMSO (APEC O78)	280 nm absorbing materials in supernatant compared with DMSO (APEC O78)	Absorbance 280 nm of treated supernatant (APEC O78)	Absorbance 260 nm of treated supernatant (APEC O78)	minimal effective concentration [2] [µM]	other results
CCN1/C(=C/c2ccc3ccccc3[n+]2CC)C=Cc2ccccc21 [SM9]	50	25	50	25	100	25	50	25	50	25	25	25	100	50	b (1X MIC)	significantly (P < 0.05, Student’s t-test) increased	significantly (P < 0.05, Student’s t-test) increased	2.78^a	3.99^a	100	concentration at which the SM significantly (P < 0.01) reduced intracellular APEC (superscript of t-statistic) [2]: b (1X MIC); minimal effective concentration [3]: 50 µM; intracellular APEC clearance concentration as multiple of MIC (superscript) [3]: b (2X MIC); concentration at which the SM significantly (P < 0.01) reduced intracellular APEC (superscript of t-statistic) [3]: b (1X MIC); minimal effective concentration [4]: 100 µM; intracellular APEC clearance concentration as multiple of MIC (superscript) ([4]; O2, Caco-2): c (4X MIC); concentration at which the SM significantly (P < 0.01) reduced intracellular APEC (superscript of t-statistic) [4]: c (2XMIC); minimal effective concentration [5]: 100 µM; intracellular APEC clearance concentration as multiple of MIC (superscript) [5]: c (4X MIC); concentration at which the SM significantly (P < 0.01) reduced intracellular APEC (superscript of t-statistic) [5]: c (2XMIC); minimal effective concentration [6]: 50 µM; concentration at which the SM significantly (P < 0.01) reduced intracellular APEC (superscript of t-statistic) [6]: b (1X MIC); minimal effective concentration [7]: 100 µM; intracellular APEC clearance concentration as multiple of MIC (superscript) [7]: c (4X MIC); concentration at which the SM significantly (P < 0.01) reduced intracellular APEC (superscript of t-statistic) [7]: c (2XMIC); minimal effective concentration [8]: 50 µM; intracellular APEC clearance concentration as multiple of MIC (superscript) [8]: b (2X MIC); concentration at which the SM significantly (P < 0.01) reduced intracellular APEC (superscript of t-statistic) [8]: b (1X MIC); minimal effective concentration [9]: ≤ 100 µM; ranking in clearing intracellular APEC ([9]; all tested serotypes and cells): most effective SMs in clearing intracellular APEC serotypes in all tested cells
CC1CCCN(CCC(=O)c2ccc(Br)cc2)C1 (stereo not shown) [SM1]	250 (≈ 77.6 µg/mL)	200 (≈ 62 µg/mL)	200 (≈ 62 µg/mL)	200 (≈ 62 µg/mL)	250 (≈ 77.6 µg/mL)	200 (≈ 62 µg/mL)	200 (≈ 62 µg/mL)	200 (≈ 62 µg/mL)	200 (≈ 62 µg/mL)	200 (≈ 62 µg/mL)	200 (≈ 62 µg/mL)	200 (≈ 62 µg/mL)	250 (≈ 77.6 µg/mL)	200 (≈ 62 µg/mL)	d (4X MIC)	significantly (P < 0.05, Student’s t-test) increased	significantly (P < 0.05, Student’s t-test) increased	3.08^a	4.00^a	400	MBEC as multiple of MIC ([1]; tested 0.5X to 8X MIC): 4 X MIC; concentration at which the SM significantly (P < 0.01) reduced intracellular APEC (superscript of t-statistic) [2]: a (0.5X MIC); minimal effective concentration [3]: 400 µM; intracellular APEC clearance concentration as multiple of MIC (superscript) [3]: b (2X MIC); concentration at which the SM significantly (P < 0.01) reduced intracellular APEC (superscript of t-statistic) [3]: a (0.5X MIC); minimal effective concentration [4]: > 400 µM; concentration at which the SM significantly (P < 0.01) reduced intracellular APEC (superscript of t-statistic) [4]: b (1X MIC); minimal effective concentration [5]: 200 µM; intracellular APEC clearance concentration as multiple of MIC (superscript) [5]: a (1X MIC); concentration at which the SM significantly (P < 0.01) reduced intracellular APEC (superscript of t-statistic) [5]: a (0.5X MIC); minimal effective concentration [6]: 200 µM; concentration at which the SM significantly (P < 0.01) reduced intracellular APEC (superscript of t-statistic) [6]: b (1X MIC); minimal effective concentration [7]: 200 µM; intracellular APEC clearance concentration as multiple of MIC (superscript) [7]: a (1X MIC); concentration at which the SM significantly (P < 0.01) reduced intracellular APEC (superscript of t-statistic) [7]: a (0.5X MIC); minimal effective concentration [8]: 200 µM; intracellular APEC clearance concentration as multiple of MIC (superscript) [8]: a (1X MIC); concentration at which the SM significantly (P < 0.01) reduced intracellular APEC (superscript of t-statistic) [8]: a (0.5X MIC); minimal effective concentration [9]: ≥ 100 µM
